{"source": "ChEMBL document CHEMBL4354827", "about": "“Discovery of Novel, Potent, Brain-Permeable, and Orally Efficacious Positive Allosteric Modulator of α7 Nicotinic Acetylcholine Receptor [4-(5-(4-Chlorophenyl)-4-methyl-2-propionylthiophen-3-yl)benzenesulfonamide]: Structure-Activity Relationship and Preclinical Characterization” (J Med Chem, 2020)", "key": {"[1]": {"assay": "Drug level in scopolamine-induced Sprague-Dawley rat plasma at 0.5 mg/kg, po for 7 days", "format": "ADME, organism-based"}, "[2]": {"system": "Rattus norvegicus", "assay": "Memory enhancement effect in scopolamine-induced Wistar rat model of amnesia assessed as exploration time for object1 in acquisition trial at 0.5 mg/kg, po for 7 days and measured on day 8 by novel object recognition test (reference value: 16.11 sec)", "format": "functional"}, "[3]": {"assay": "Drug concentration in Wistar rat plasma at 10 mg/kg, po after 8 hrs by LC-MS/MS analysis", "format": "ADME, organism-based"}, "[4]": {"assay": "Drug concentration in Wistar rat plasma at 10 mg/kg, po after 24 hrs by LC-MS/MS analysis", "format": "ADME, organism-based"}, "[5]": {"system": "Rattus norvegicus", "assay": "Memory enhancement effect in scopolamine-induced Wistar rat model of amnesia assessed as exploration time for familiar object in retention trial at 0.15 mg/kg, po administered as single dose and measured on day 9 by novel object recognition test (reference value: 8.59 sec)", "format": "functional"}, "[6]": {"system": "Rattus norvegicus", "assay": "Memory enhancement effect in scopolamine-induced Wistar rat model of amnesia assessed as exploration time for object2 in acquisition trial at 0.15 mg/kg, po for 7 days and measured on day 8 by novel object recognition test (reference value: 15.63 sec)", "format": "functional"}, "[7]": {"system": "Rattus norvegicus", "assay": "Memory enhancement effect in scopolamine-induced Wistar rat model of amnesia assessed as exploration time for familiar object in retention trial at 0.5 mg/kg, po for 7 days and measured on day 8 by novel object recognition test (reference value: 8.59 sec)", "format": "functional"}, "[8]": {"assay": "Cmax in Wistar rat at 10 mg/kg, po after 0.25 to 144 hrs by LC-MS/MS analysis", "format": "ADME, organism-based", "set-up": "dose 10 mg/kg, route oral", "details": "in vivo; call rule not given here"}, "[9]": {"assay": "Drug level in Sprague-Dawley rat plasma at 0.5 mg/kg, po for 7 days", "format": "ADME, organism-based"}, "[10]": {"assay": "Drug level in scopolamine-induced Sprague-Dawley rat brain at 0.05 mg/kg, po for 7 days", "format": "ADME, organism-based", "details": "read-out: Drug uptake"}, "[11]": {"assay": "AUClast in BALB/c mouse at 1 mg/kg, iv after 0.083 to 144 hrs by LC-MS/MS analysis", "format": "ADME, organism-based", "set-up": "dose 1 mg/kg, time upper 144 hr, time lower 0.083 hr, route intravenous", "details": "in vivo"}, "[12]": {"system": "Rattus norvegicus", "assay": "Memory enhancement effect in time-delay induced Wistar rat model of amnesia assessed as exploration time for object2 at 3 mg/kg, po administered as single dose after acquisition trial by novel object recognition test (reference value: 21.07 sec)", "format": "functional"}, "[13]": {"assay": "AUCt in Wistar rat plasma at 10 mg/kg, po after 1 to 144 hrs by LC-MS/MS analysis", "format": "ADME, organism-based"}, "[14]": {"molecular_target": "Cytochrome P450 2D6 (Homo sapiens, UniProt P10635)", "sequence (P10635 whole entry)": "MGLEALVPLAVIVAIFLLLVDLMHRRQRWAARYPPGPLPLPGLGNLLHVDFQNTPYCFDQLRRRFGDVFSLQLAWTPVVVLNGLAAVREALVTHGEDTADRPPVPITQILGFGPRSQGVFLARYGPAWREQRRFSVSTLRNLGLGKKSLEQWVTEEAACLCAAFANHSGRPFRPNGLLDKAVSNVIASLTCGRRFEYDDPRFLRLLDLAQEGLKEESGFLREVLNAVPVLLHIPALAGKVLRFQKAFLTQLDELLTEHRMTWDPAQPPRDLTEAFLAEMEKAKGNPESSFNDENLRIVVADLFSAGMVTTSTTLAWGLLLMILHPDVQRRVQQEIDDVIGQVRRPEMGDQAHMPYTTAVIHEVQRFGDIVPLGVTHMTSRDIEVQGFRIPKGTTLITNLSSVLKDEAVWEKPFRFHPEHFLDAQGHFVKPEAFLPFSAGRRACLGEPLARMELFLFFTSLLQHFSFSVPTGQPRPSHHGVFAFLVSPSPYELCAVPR", "assay": "Inhibition of CYP2D6 (unknown origin) up to 10 uM", "format": "ADME"}, "[15]": {"assay": "Brain to plasma permeability coefficient, Kp in Wistar rat at 10 mg/kg, po after 24 hrs by LC-MS/MS analysis", "format": "ADME, organism-based"}, "[16]": {"assay": "Drug concentration in Wistar rat brain at 10 mg/kg, po after 4 hrs by LC-MS/MS analysis", "format": "ADME, organism-based", "details": "read-out: Drug uptake"}, "[17]": {"system": "Rattus norvegicus", "assay": "Memory enhancement effect in scopolamine-induced Wistar rat model of amnesia assessed as exploration time for familiar object in retention trial at 0.05 mg/kg, po for 7 days and measured on day 8 by novel object recognition test (reference value: 8.59 sec)", "format": "functional"}, "[18]": {"assay": "Drug metabolism in human pooled liver microsomes assessed as metabolic rate at 1 uM preincubated for 5 mins followed by NADPH addition after 30 mins by LC-MS/MS analysis", "format": "ADME, Microsome", "details": "0.5 h"}, "[19]": {"assay": "Cmax in BALB/c mouse at 10 mg/kg, po after 0.25 to 144 hrs by LC-MS/MS analysis", "format": "ADME, organism-based", "set-up": "dose 10 mg/kg, route oral", "details": "in vivo"}, "[20]": {"system": "Rattus norvegicus", "assay": "Memory enhancement effect in time-delay induced Wistar rat model of amnesia assessed as increase in discrimination index at 0.15 mg/kg, po for 7 days and measured on day 8 by novel object recognition test (reference value: 0.12)", "format": "functional"}, "[21]": {"assay": "Cmax in Beagle dog at 1 mg/kg, iv after 0.083 to 144 hrs by LC-MS/MS analysis", "format": "ADME, organism-based, Canis lupus familiaris", "set-up": "dose 1 mg/kg, route intravenous", "details": "in vivo"}, "[22]": {"assay": "Clearance in Beagle dog at 1 mg/kg, iv after 0.083 to 144 hrs by LC-MS/MS analysis", "format": "ADME, organism-based, Canis lupus familiaris", "details": "in vivo"}, "[23]": {"assay": "Half life in Beagle dog at 10 mg/kg, po after 0.25 to 144 hrs by LC-MS/MS analysis", "format": "ADME, organism-based, Canis lupus familiaris", "details": "in vivo"}, "[24]": {"system": "Rattus norvegicus", "assay": "Improvement in social recognition time delay-induced Sprague-Dawley rat model of amnesia assessed as increase in reduction in social investigation time at 0.05 mg/kg, po for 7 days measured on day 9 (reference value: -0.5%)", "format": "functional", "set-up": "scale not given: the % may be the effect or the level left"}, "[25]": {"system": "Rattus norvegicus", "assay": "Improvement in social recognition scopolamine-induced Sprague-Dawley rat model of amnesia assessed as reduction in recognition index at 0.15 mg/kg, po for 7 days measured after 24 hrs (reference value: 0.93)", "format": "functional"}, "[26]": {"system": "Rattus norvegicus", "assay": "Memory enhancement effect in scopolamine-induced Wistar rat model of amnesia assessed as exploration time for familiar object in retention trial at 0.15 mg/kg, po for 7 days and measured on day 8 by novel object recognition test (reference value: 8.59 sec)", "format": "functional"}, "[27]": {"system": "Rattus norvegicus", "assay": "Improvement in social recognition time delay-induced Sprague-Dawley rat model of amnesia assessed as reduction in recognition index 3 mg/kg, po administered as single dose prior to 1 hr training and measured after 30 mins (reference value: 1)", "format": "functional"}, "[28]": {"assay": "Oral bioavailability in Beagle dog at 10 mg/kg after 0.25 to 144 hrs by LC-MS/MS analysis", "format": "ADME, organism-based, Canis lupus familiaris", "details": "in vivo"}, "[29]": {"system": "Rattus norvegicus", "assay": "Improvement in social recognition scopolamine-induced Sprague-Dawley rat model of amnesia assessed as reduction in recognition index at 0.05 mg/kg, po for 7 days measured after 24 hrs (reference value: 0.93)", "format": "functional"}, "[30]": {"system": "Rattus norvegicus", "assay": "Memory enhancement effect in scopolamine-induced Wistar rat model of amnesia assessed as exploration time for object2 in acquisition trial at 0.15 mg/kg, po administered as single dose and measured on day 8 by novel object recognition test (reference value: 15.63 sec)", "format": "functional"}, "[31]": {"assay": "Metabolic stability in monkey liver microsomes assessed as compound remaining at 1 uM preincubated for 5 mins followed by NADPH addition and measured after 30 mins by LC-MS/MS analysis", "format": "ADME, Macaca mulatta, Microsome", "details": "rhesus monkey, read-out: Stability"}, "[32]": {"assay": "Drug metabolism in mouse liver microsomes assessed as metabolic rate at 1 uM preincubated for 5 mins followed by NADPH addition after 30 mins by LC-MS/MS analysis", "format": "ADME, Microsome", "details": "0.5 h"}, "[33]": {"assay": "Metabolic stability in human pooled liver microsomes assessed as compound remaining at 1 uM preincubated for 5 mins followed by NADPH addition and measured after 30 mins by LC-MS/MS analysis", "format": "ADME, Microsome", "details": "read-out: Stability"}, "[34]": {"assay": "AUC(0 to infinity) in human at 7.5 to 100 mg", "format": "ADME"}, "[35]": {"system": "Rattus norvegicus", "assay": "Improvement in social recognition scopolamine-induced Sprague-Dawley rat model of amnesia assessed as increase in reduction in social investigation time at 0.05 mg/kg, po for 7 days measured after 24 hrs (Rvb =6.59%)", "format": "functional", "set-up": "scale not given: the % may be the effect or the level left"}, "[36]": {"assay": "AUClast in Beagle dog at 1 mg/kg, iv after 0.083 to 144 hrs by LC-MS/MS analysis", "format": "ADME, organism-based, Canis lupus familiaris", "set-up": "dose 1 mg/kg, time 0.083-144 hr, route intravenous", "details": "in vivo"}, "[37]": {"molecular_target": "Cytochrome P450 2C9 (Homo sapiens, UniProt P11712)", "sequence (P11712 whole entry)": "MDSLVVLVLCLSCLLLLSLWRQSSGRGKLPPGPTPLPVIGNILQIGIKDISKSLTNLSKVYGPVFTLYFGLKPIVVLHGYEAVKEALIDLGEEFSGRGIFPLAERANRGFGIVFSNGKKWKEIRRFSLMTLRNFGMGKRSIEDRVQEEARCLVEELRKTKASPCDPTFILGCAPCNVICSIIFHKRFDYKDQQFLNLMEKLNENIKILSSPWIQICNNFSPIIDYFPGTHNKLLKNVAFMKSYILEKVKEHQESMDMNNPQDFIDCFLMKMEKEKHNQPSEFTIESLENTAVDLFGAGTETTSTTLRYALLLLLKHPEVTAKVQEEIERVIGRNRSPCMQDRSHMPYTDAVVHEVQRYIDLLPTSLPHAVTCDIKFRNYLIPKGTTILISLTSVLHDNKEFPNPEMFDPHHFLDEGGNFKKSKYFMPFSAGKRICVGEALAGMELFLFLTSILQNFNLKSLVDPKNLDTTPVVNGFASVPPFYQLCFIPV", "assay": "Inhibition of CYP2C9 (unknown origin) up to 10 uM", "format": "ADME"}, "[38]": {"assay": "Cmax in Wistar rat at 1 mg/kg, iv after 0.083 to 144 hrs by LC-MS/MS analysis", "format": "ADME, organism-based", "set-up": "dose 1 mg/kg, route intravenous", "details": "in vivo"}}, "data": [{"smiles": "CCC(=O)c1sc(-c2ccc(Cl)cc2)c(C)c1-c1ccc(S(N)(=O)=O)cc1", "values": [{"measurement": "concentration at 168 h", "setting": "[1]", "result": 580, "unit": "nM"}, {"measurement": "Time", "setting": "[2]", "result": 13.94, "unit": "s"}, {"measurement": "concentration at 8 h", "setting": "[3]", "result": 830, "unit": "nM"}, {"measurement": "concentration at 24 h", "setting": "[4]", "result": 740, "unit": "nM"}, {"measurement": "Time", "setting": "[5]", "result": 4.86, "unit": "s"}, {"measurement": "Time", "setting": "[6]", "result": 13.41, "unit": "s"}, {"measurement": "Time", "setting": "[7]", "result": 6.63, "unit": "s"}, {"measurement": "Cmax", "setting": "[8]", "result": 4100, "unit": "nM"}, {"measurement": "concentration at 168 h", "setting": "[9]", "result": 1120, "unit": "nM"}, {"measurement": "concentration at 168 h", "setting": "[10]", "result": 250, "unit": "nM"}, {"measurement": "AUC(0-t)", "setting": "[11]", "result": 11, "unit": "µM·h"}, {"measurement": "Time", "setting": "[12]", "result": 21.46, "unit": "s"}, {"measurement": "AUC(0-t)", "setting": "[13]", "result": 35, "unit": "µM·h"}, {"measurement": "inhibition (INH)", "setting": "[14]", "result": "Not Active"}, {"measurement": "Kp at 24 h", "setting": "[15]", "result": 8.85}, {"measurement": "concentration at 4 h", "setting": "[16]", "result": 9220, "unit": "nM"}, {"measurement": "Time", "setting": "[17]", "result": 8.03, "unit": "s"}, {"measurement": "Drug metabolism", "setting": "[18]", "result": 0.01, "unit": "nmol/min/mg"}, {"measurement": "Cmax", "setting": "[19]", "result": 3400, "unit": "nM"}, {"measurement": "Activity_index", "setting": "[20]", "result": 0.3}, {"measurement": "Cmax", "setting": "[21]", "result": 3000, "unit": "nM"}, {"measurement": "clearance", "setting": "[22]", "result": 0.7, "unit": "mL/min/kg"}, {"measurement": "half-life", "setting": "[23]", "result": 54, "unit": "h"}, {"measurement": "Activity", "setting": "[24]", "result": 18.97, "unit": "%"}, {"measurement": "Activity_index", "setting": "[25]", "result": 0.44}, {"measurement": "Time", "setting": "[26]", "result": 4.86, "unit": "s"}, {"measurement": "Activity_index", "setting": "[27]", "result": 0.47}, {"measurement": "bioavailability", "setting": "[28]", "result": 60, "unit": "%"}, {"measurement": "Activity_index", "setting": "[29]", "result": 0.56}, {"measurement": "Time", "setting": "[30]", "result": 13.41, "unit": "s"}, {"measurement": "remaining at 0.5 h, 1 µM", "setting": "[31]", "result": 79, "unit": "%"}, {"measurement": "Drug metabolism", "setting": "[32]", "result": 0.01, "unit": "nmol/min/mg"}, {"measurement": "remaining at 0.5 h, 1 µM", "setting": "[33]", "result": 90, "unit": "%"}, {"measurement": "AUC(0-inf)", "setting": "[34]", "result": "261 to 24100", "unit": "ng·h/mL"}, {"measurement": "Activity", "setting": "[35]", "result": 44.4, "unit": "%"}, {"measurement": "AUC(0-t)", "setting": "[36]", "result": 47, "unit": "µM·h"}, {"measurement": "inhibition (INH)", "setting": "[37]", "result": "Not Active"}, {"measurement": "Cmax", "setting": "[38]", "result": 1100, "unit": "nM"}]}]}
